Values quoted from earlier work, collected in patent publication US20160193372A1, “METHODS OF IDENTIFYING SURROGATE IMAGING AGENTS FOR ALPHA EMITTER RADIOPHARMACEUTICALS AND THEIR USE IN TREATMENT OF DISEASE” (THE JOHNS HOPKINS UNIVERSITY, priority 2012, published 2016).

Test system: mineralizing or proliferating bone matrix
Details: very high administered activities

**Q.** With ^153Sm-EDTMP as the substance, how does the “pain effect in OS” value read?
**A.** Its value is “pain palliation”.

**Q.** What about the “therapeutic efficacy in OS” value of the same substance?
**A.** The value was “minimal therapeutic efficacy”.
